Test results from patent US11859235B2, “Sensor, detection method, reagent and kit” (priority 2020, dated 2024).

System: acetylcholinesterase
Experiment: acetylcholine decomposition by acetylcholinesterase in a mixed system, monitored as pH change rate
Format: biochemical
Details: addition of limonene to the mixed system of acetylcholine and acetylcholinesterase; FIG. 3
From the text: The reaction of the above formula (1) is a chemical reaction in which acetylcholine acts as a substrate and acetylcholinesterase acts as an enzyme. In general, it is known that a chemical reaction using an enzyme is inhibited by a specific chemical substance for each enzyme, and the reaction rate is reduced or the reaction is stopped. The chemical substance is hereinafter referred to as an “inhibitor”. Here, in the mixed system of acetylcholinesterase and acetylcholine shown in FIG. 2A, when the inhibitor starts to be contained from time t, the cumulative amount of acetylcholine decomposition product after time t changes, that is, the slope of the graph decreases (see FIG. 2B). Therefore, by monitoring the decomposition rate of acetylcholine in the mixed system, it is possible to detect whether or not an inhibitor is present in the mixed system.
The target substance to be detected by the sensor according to the present embodiment is an inhibitor against the acetylcholine decomposition reaction of acetylcholinesterase. Examples of this inhibitor include limonene. […] Examples of the inhibitor other than limonene against the acetylcholine decomposition reaction of acetylcholinesterase include terpenoids such as ambrein and pinene, flavonoids such as luteolin, alkaloids such as galantamine, and glycosides such as Cynatroside A.

Q: With `C=C(C)[C@H]1CC=C(C)CC1` [limonene] as the compound, how does the “effect on the pH change rate of the mixed system of acetylcholine and acetylcholinesterase (inhibitory effect on the acetylcholine decomposition reaction)” value read?
A: reduces the pH change rate of the mixed system
